We go through 1 molecule from US6528456B2, “Herbicidal 2-pyrazolyl-6-aryloxypyri(mi)dines” (BASF Aktiengesellschaft, priority 1999, dated 2003).

Molecules are shown by their SMILES.

The assay relates to Stellaria media. The assay is described as follows: Post-emergence test. The note with it: 2-4 weeks after treatment. It is filed as in vivo. The method, then: To evaluate their herbicidal activity, compounds according to the invention are tested using a representative range of plants: STEME Stellaria media [table] […] These acetone solutions are diluted with water and the resulting formulations applied at dosage levels equivalent of about 0.1 to 0. 4 kg per hectare of test compound per pot. After spraying the plants are placed on greenhouse benches and are cared for in the usual manner, commensurate with conventional greenhouse practices. From 2 to 4 weeks after treatment, the seedling plants are examined and rated according to the rating system provided above.

For `Cc1cnc(-c2cc(C(F)(F)F)nn2C)nc1Oc1cc(C(F)(F)F)nn1C` [Example 4, 2-(1-Methyl-3-trifluoromethylpyrazol-5-yl)-6-(1-methyl-3-trifluoromethylpyrazol-5-yloxy)-5-methylpyrimidine], the STEME herbicidal rating (0.1 kg/ha) was 5 (5 - Definite injury) and the STEME herbicidal rating (0.4 kg/ha) is on record as 6 (6 - Herbicidal effect).
